Data on 18 molecules can be found in ChEMBL document CHEMBL4312037, “Fragment hopping-based discovery of novel sulfinylacetamide-diarylpyrimidines (DAPYs) as HIV-1 nonnucleoside reverse transcriptase inhibitors” (Eur J Med Chem, 2020).

Series [1] can be described thus: in vitro. The settings on record: human, MT4 cells; MT4 cells infected with HIV1 3B.
Description: Selectivity index, ratio of CC50 for cytotoxicity against human MT4 cells to EC50 for antiviral activity against HIV1 3B infected in human MT4 cells
Series [2] is described as follows: Stability in rat liver microsomes assessed as half life. It is filed as ADME, Microsome. A general note: Microsomes from liver hold many membrane-bound enzymes, among them those of drug oxidation.
For series [3], the system named is Human immunodeficiency virus 1. The series is described as follows: Antiviral activity against HIV1 3B harbouring NNRTI K103N mutant infected in human MT4 cells assessed as virus-induced cytopathic effect incubated for 5 days by MTT assay. It is filed as functional, organism-based. The settings on record: Human immunodeficiency virus 1, 3B, MT4, 120 h.
Series [4] can be described thus: Stability in human liver microsomes assessed as half life. It is filed as ADME, Microsome.
Series [5] in a line: in vitro. Conditions: human, MT4 cells; MT4 cells infected with HIV1 3B K103N mutant.
Description: Selectivity index, ratio of CC50 for cytotoxicity against human MT4 cells to EC50 for antiviral activity against HIV1 3B harbouring NNRTI K103N mutant infected in human MT4 cells
Series [6] can be described thus: Cytotoxicity against human MT4 cells assessed as reduction in cell viability incubated for 5 days by MTT assay. Format: cell-based. A general note: Formazan colour is commonly taken as a measure of viable cells.
Series [7] in a line: Stability in human liver microsomes assessed as intrinsic clearance. It is filed as ADME, Microsome. The settings on record: read-out: CLH.
Series [8] can be described thus: Stability in rat liver microsomes assessed as intrinsic clearance. It is filed as ADME, Microsome. Conditions: read-out: CLH.
For series [9], the system named is Human immunodeficiency virus 1. In words: Antiviral activity against HIV1 3B infected in human MT4 cells assessed as virus-induced cytopathic effect incubated for 5 days by MTT assay. Format: functional, organism-based. The settings on record: Human immunodeficiency virus 1, 3B, MT4, 120 h. A general note: Protection from cytopathic effect is a common read-out in antiviral testing.

In series [10] the target is Human immunodeficiency virus type 1 reverse transcriptase (Human immunodeficiency virus 1, UniProt Q72547).
Description: Inhibition of recombinant wild type HIV-1 His-tagged reverse transcriptase p66/p51 expressed in Escherichia coli JM109 using poly(rA)/oligo(dT)16 as template/primer incubated for 40 mins by pico-green based spectrofluorometric analysis
The subject of series [11] is Human immunodeficiency virus 1. In words: Antiviral activity against HIV1. Format: functional, organism-based.
Series [12] concerns Human immunodeficiency virus 1. In words: Antiviral activity against HIV1 harbouring NNRTI K103N. It is filed as functional, organism-based.

pEC50, pIC50: −log10 of the molar value.

For orientation: half-life means the time needed for the level to fall by half in the phase considered. A word on the pEC50: it is −log10 of the EC50, conventionally taken in molar units. Usually CC50 stands for the concentration at which the toxic effect on the cells reaches its halfway point. The term pIC50 denotes the negative decadic logarithm of the IC50, by convention in mol/L. A higher pIC50 goes with a low IC50.

Regarding `COc1cc2nc([S+]([O-])CC(=O)Nc3ccc(C#N)cc3)nc(Nc3c(C)cc(/C=C/C#N)cc3C)c2cc1OC` (configuration not stated), the selectivity ratio in the series “in vitro [1]” is greater than 8870; in the series “in vitro [5]” it was greater than 21200. In addition, the half-life amounted to 1.35 h in series [2] and 1.37 h in series [4]. Also, the figures for the pEC50 in series [3] and in series [9] were 7.98 and 7.60, respectively. Also, the CC50 at 120 h in [6] is greater than 221 µM. Moreover, the microsomal CLint in series [7] was found to be 8.45 µL/min/mg; in series [8] it was 8.58 µL/min/mg. In [10], the pIC50 was 8.24.

As for `O=C(CSc1nnc(Br)n1-c1ccc(C2CC2)c2ccccc12)Nc1ccc(C(=O)O)cc1Cl`, the figures for the pEC50 in [11] and in series [12] were 8.55 and greater than 8.52, respectively.

With `COc1cc2nc(Nc3ccc(C#N)cc3)nc(Nc3c(C)cc(/C=C/C#N)cc3C)c2cc1OC`, the selectivity ratio in the series “in vitro [1]” was 806; in the series “in vitro [5]” it was 986. Also, the pEC50 in [3] was 7.98; in series [9], 7.90. For the same molecule, in [6], the CC50 at 120 h turned out to be 10.2 µM. The molecule also showed a pIC50 in series [10] of 6.26.

On to `COc1cc2nc(SCC(=O)Nc3ccc(C#N)cc3)nc(Nc3c(C)cc(/C=C/C#N)cc3C)c2cc1OC`, for which the values for the selectivity ratio in the series “in vitro [1]” and in the series “in vitro [5]” were greater than 746 and greater than 1130, respectively. Moreover, the results for the pEC50 in series [3] and in series [9] were 6.70 and 6.52, respectively. Besides, in series [6], the CC50 at 120 h was greater than 227 µM. In series [10], this molecule had a pIC50 of 5.44.

For `COc1cc2nc([S+]([O-])CC(=O)Nc3ccc([N+](=O)[O-])cc3)nc(Nc3c(C)cc(/C=C/C#N)cc3C)c2cc1OC` (configuration not stated), the selectivity ratio in the series “in vitro [1]” was determined as 4590; in “in vitro [5]”, 12100. The pEC50 in series [3] was 7.80; in series [9], 7.39. Moreover, the CC50 at 120 h in series [6] turned out to be 189 µM. This molecule gave a pIC50 in [10] of 7.96.

For the molecule `COc1cc2nc(SCC(=O)Nc3ccc(F)cc3)nc(Nc3c(C)cc(/C=C/C#N)cc3C)c2cc1OC`, the selectivity ratio was no less than 66 in “in vitro [1]” and no less than 159 in the series “in vitro [5]”. Besides, the pEC50 in series [3] was 6.03; in [9], 5.64. The CC50 at 120 h in series [6] was no less than 150 µM.

As to `COc1cc2nc(SCC(=O)Nc3ccc(Cl)cc3)nc(Nc3c(Cl)cc(/C=C/C#N)cc3Cl)c2cc1OC`, the selectivity ratio in the series “in vitro [1]” was 24; in “in vitro [5]”, 44. In addition, the pEC50 in [3] is 6.17; in series [9] it was 5.90. Also, the CC50 at 120 h in series [6] was 29.5 µM.

Regarding `COc1cc2nc([S+]([O-])CC(=O)Nc3ccc(S(N)(=O)=O)cc3)nc(Nc3c(Cl)cc(/C=C/C#N)cc3Cl)c2cc1OC` (configuration not stated), the figures for the selectivity ratio in the series “in vitro [1]” and in “in vitro [5]” were greater than 10 and greater than 21, respectively. Moreover, the values for the pEC50 in series [3] and in [9] were 5.04 and 4.71, respectively. Further, in [6], the CC50 at 120 h is greater than 189 µM.

On to `COc1ccccc1NC(=O)C[S+]([O-])c1nc(Nc2c(Cl)cc(/C=C/C#N)cc2Cl)c2cc(OC)c(OC)cc2n1` (configuration not stated), for which the selectivity ratio in the series “in vitro [1]” was greater than 63; in the series “in vitro [5]”, greater than 132. Further, the pEC50 in series [3] was 5.81; in series [9], 5.49. Also, the CC50 at 120 h in [6] is greater than 204 µM.

`COc1cc2nc(Nc3ccc(C#N)cc3)nc(Nc3c(Cl)cc(/C=C/C#N)cc3Cl)c2cc1OC`: the selectivity ratio in “in vitro [1]” is 1890; in the series “in vitro [5]” it was 1580. In addition, the pEC50 was 8.20 in series [3] and 8.28 in [9]. The CC50 at 120 h in [6] came to 9.92 µM. In addition, in [10], the pIC50 was 7.34.

As to `COc1cc2nc([S+]([O-])CC(=O)Nc3ccccc3F)nc(Nc3c(Cl)cc(/C=C/C#N)cc3Cl)c2cc1OC` (configuration not stated), the selectivity ratio in “in vitro [1]” was greater than 12; in “in vitro [5]”, greater than 37. The pEC50 in series [3] was 5.25; in [9] it was 4.77. In series [6], the CC50 at 120 h was greater than 208 µM.

For `COc1cc2nc(SCC(=O)Nc3ccc(C(F)(F)F)cc3)nc(Nc3c(C)cc(/C=C/C#N)cc3C)c2cc1OC`, the selectivity ratio in “in vitro [1]” is greater than 40; in the series “in vitro [5]”, greater than 87. Besides, the pEC50 in series [3] is 5.62; in [9] it was 5.28. In addition, the CC50 at 120 h in series [6] was greater than 211 µM.

For the molecule `COc1cc2nc([S+]([O-])CC(=O)Nc3ccc(Cl)cc3)nc(Nc3c(Cl)cc(/C=C/C#N)cc3Cl)c2cc1OC` (configuration not stated), the selectivity ratio in the series “in vitro [1]” came to 313; in “in vitro [5]” it was 550. In addition, the results for the pEC50 in [3] and in series [9] were 7.58 and 7.34, respectively. For the same molecule, the CC50 at 120 h in series [6] stood at 14.4 µM.

As to `COc1cc2nc(SCC(=O)Nc3ccc([N+](=O)[O-])cc3)nc(Nc3c(C)cc(/C=C/C#N)cc3C)c2cc1OC`, the selectivity ratio in “in vitro [1]” was greater than 292; in the series “in vitro [5]”, greater than 612. In addition, the figures for the pEC50 in series [3] and in [9] were 6.45 and 6.13, respectively. In addition, in [6], the CC50 at 120 h was greater than 219 µM. In series [10], this molecule showed a pIC50 of 5.40.

As to `COc1cc2nc([S+]([O-])CC(=O)Nc3ccc(C(F)(F)F)cc3)nc(Nc3c(C)cc(/C=C/C#N)cc3C)c2cc1OC` (configuration not stated), the figures for the selectivity ratio in the series “in vitro [1]” and in the series “in vitro [5]” were 116 and 210, respectively. Moreover, the pEC50 in series [3] was 6.60; in series [9] it was 6.35. The CC50 at 120 h in series [6] was 52.2 µM.

For `COc1cc2nc([S+]([O-])CC(=O)Nc3ccc(C(F)(F)F)cc3)nc(Nc3c(Cl)cc(/C=C/C#N)cc3Cl)c2cc1OC` (configuration not stated), the selectivity ratio in the series “in vitro [1]” stood at 97; in the series “in vitro [5]”, 247. The values for the pEC50 in series [3] and in series [9] were 7.05 and 6.64, respectively. Also, the half-maximal cytotoxic concentration (CC50) at 120 h in [6] was found to be 22 µM.

On to `COc1cc2nc([S+]([O-])CC(=O)Nc3ccc([N+](=O)[O-])cc3)nc(Nc3c(Cl)cc(/C=C/C#N)cc3Cl)c2cc1OC` (configuration not stated), for which the selectivity ratio in “in vitro [1]” came out at 2410; in “in vitro [5]”, 2990. Moreover, the pEC50 in series [3] is 7.51; in series [9], 7.41. For the same molecule, the CC50 at 120 h in series [6] is 92.8 µM.

Take `COc1cc2nc([S+]([O-])CC(=O)Nc3cccc(F)c3)nc(Nc3c(Cl)cc(/C=C/C#N)cc3Cl)c2cc1OC` (configuration not stated): the results for the selectivity ratio in the series “in vitro [1]” and in the series “in vitro [5]” were 40 and 137, respectively. The pEC50 in [3] is 7.16; in [9], 6.63. Besides, the 50% cytotoxic concentration (CC50) at 120 h in [6] turned out to be 9.55 µM.
